# In ChEMBL document CHEMBL6134905, “Double Swords in One: Novel Selective PI3K/110β PROTAC Degraders for the Treatment of Multidrug-Resistant Cancer by Activating ERS and Inhibiting P-gp” (J Med Chem, 2025):
# Calls of active or inactive are those of the source. No cut-off for these calls is given here.
# What was measured:
# MCF7/ADM [1] = assay: Upregulation of CHOP expression in human MCF7/ADM cells at 0.25 to 25 uM incubated for 24 hrs by Western blot analysis; type: functional, cell-based; details: dose 0.25-25 µM
# Mitochondrial membrane [2] = assay: Induction of mitochondrial membrane potential loss in human MCF7/ADM cells assessed as increase in green fluorescence at 25 uM incubated for 48 hrs by JC-1 staining based flow cytometry
# [3] = molecular target: T1, ATP-dependent translocase ABCB1 (Homo sapiens, UniProt P08183); assay: Inhibition of P-gp in human MCF7/ADM cells at 6.25 to 25 uM incubated for 24 hrs; type: cell-based; details: dose 6.25-25 µM
# A549/CDDP [4] = assay: Activation of unfolded protein response in human A549/DDP cells at 25 uM incubated for 24 hrs by PROTEOSTATR aggresome dye based fluorescent microscopy; type: functional, cell-based
# A549/CDDP [5] = assay: Induction of apoptosis in human A549/DDP cells assessed as increase in cleaved caspase-8 expression at 12.5 uM incubated for 24 hrs by Western blot analysis; type: functional, cell-based
# MCF7/ADM [6] = assay: Upregulation of ATF4 expression in human MCF7/ADM cells at 0.25 to 25 uM incubated for 24 hrs by Western blot analysis; type: functional, cell-based; details: dose 0.25-25 µM
# A549/CDDP [7] = assay: Antitumor activity against human A549/DDP cells assessed as cell viability incubated for 24 hrs by MTT assay; type: functional, cell-based
# A549/CDDP [8] = assay: Induction of apoptosis in human A549/DDP cells assessed as increase in caspase-8 expression at 12.5 uM incubated for 24 hrs by Western blot analysis; type: functional, cell-based
# [9] = molecular target: T2, von Hippel-Lindau disease tumor suppressor/Phosphatidylinositol 4,5-bisphosphate 3-kinase catalytic subunit beta isoform (Homo sapiens, UniProt P42338+P40337); assay: PROTAC activity at PI3K-p110beta/VHL in human A549/DDP cells assessed as reduction in PI3K-p110beta level at 25 uM measured for 24 hrs by Western blot analysis; type: cell-based
# A549/CDDP [10] = assay: Induction of apoptosis in human A549/DDP cells assessed as increase in cleaved caspase-3 expression at 12.5 uM incubated for 24 hrs by Western blot analysis; type: functional, cell-based
# [11] = molecular target: T1, ATP-dependent translocase ABCB1; assay: Inhibition of P-gp in human A549/DDP cells at 6.25 to 25 uM incubated for 24 hrs; type: cell-based; details: dose 6.25-25 µM
# [12] = Toxicity in BALB/c mouse xenografted with human MCF7/ADM cells assessed as change in platelet count at 50 mg/kg, ip; type: organism-based; details: in vivo
# A549/CDDP [13] = assay: Induction of apoptosis in human A549/DDP cells assessed as decrease in bcl-2 expression at 12.5 uM incubated for 24 hrs by Western blot analysis; type: functional, cell-based
# A549/CDDP [14] = assay: Induction of apoptosis in human A549/DDP cells assessed as increase in caspase-3 expression at 12.5 uM incubated for 24 hrs by Western blot analysis; type: functional, cell-based
# MCF7/ADM [15] = assay: Induction of apoptosis in human MCF7/ADM cells assessed as increase in cleaved caspase-8 expression at 12.5 uM incubated for 24 hrs by Western blot analysis; type: functional, cell-based
# [16] = Toxicity in BALB/c mouse xenografted with human MCF7/ADM cells assessed as lung damage at 50 mg/kg, ip by H and E staining based analysis; type: organism-based; details: in vivo
# MCF7/ADM [17] = assay: Antitumor activity against human MCF7/ADM cells xenografted in BALB/c mouse assessed as increase in pIRE1 expression in tumor at 50 mg/kg, ip by Western blot analysis; type: functional, organism-based
# MCF7/ADM [18] = assay: Antitumor activity against human MCF7/ADM cells xenografted in BALB/c mouse assessed as increase in GRP78 expression in tumor at 50 mg/kg, ip by Western blot analysis; type: functional, organism-based
# MCF7/ADM [19] = assay: Antitumor activity against human MCF7/ADM cells xenografted in BALB/c mouse assessed as reduction in p-gp expression in tumor at 50 mg/kg, ip by Western blot analysis; type: functional, organism-based
# MCF7/ADM [20] = assay: Antitumor activity against human MCF7/ADM cells xenografted in BALB/c mouse assessed as decrease in bcl-2 expression in tumor at 50 mg/kg, ip by Western blot analysis; type: functional, organism-based
# A549/CDDP [21] = assay: Upregulation of ATF4 expression in human A549/DDP cells at 0.25 to 25 uM incubated for 24 hrs by Western blot analysis; type: functional, cell-based; details: dose 0.25-25 µM
# Mitochondrial membrane [22] = assay: Induction of mitochondrial membrane potential loss in human A549/DDP cells assessed as increase in green fluorescence at 25 uM incubated for 48 hrs by JC-1 staining based flow cytometry
# MCF7/ADM [23] = assay: Antitumor activity against human MCF7/ADM cells xenografted in BALB/c mouse assessed as increase in bax expression in tumor at 50 mg/kg, ip by Western blot analysis; type: functional, organism-based
# MCF7/ADM [24] = assay: Antitumor activity against human MCF7/ADM cells xenografted in BALB/c mouse assessed as reduction in tumor volume at 50 mg/kg, ip measured every 2 days; type: functional, organism-based; details: time 2.0 day
# MCF7/ADM [25] = assay: Antitumor activity against human MCF7/ADM cells xenografted in BALB/c mouse assessed as reduction in AKT expression in tumor at 50 mg/kg, ip by Western blot analysis; type: functional, organism-based
# MCF7/ADM [26] = assay: Antitumor activity against human MCF7/ADM cells xenografted in BALB/c mouse assessed as effect on PTEN expression in tumor at 50 mg/kg, ip by Western blot analysis; type: functional, organism-based
# A549/CDDP [27] = assay: Induction of apoptosis in human A549/DDP cells assessed as increase in caspase-9 expression at 12.5 uM incubated for 24 hrs by Western blot analysis; type: functional, cell-based
# MCF7/ADM [28] = assay: Induction of apoptosis in human MCF7/ADM cells assessed as increase in caspase-8 expression at 12.5 uM incubated for 24 hrs by Western blot analysis; type: functional, cell-based
# MCF7/ADM [29] = assay: Antitumor activity against human MCF7/ADM cells xenografted in BALB/c mouse assessed as reduction in p-110beta expression in tumor at 50 mg/kg, ip by Western blot analysis; type: functional, organism-based
# MCF7/ADM [30] = assay: Upregulation of PTEN expression in human MCF7/ADM cells at 25 uM incubated for 24 hrs by Western blot analysis; type: functional, cell-based
# [31] = molecular target: T2, von Hippel-Lindau disease tumor suppressor/Phosphatidylinositol 4,5-bisphosphate 3-kinase catalytic subunit beta isoform; assay: PROTAC activity at PI3K-p110beta/VHL in human MCF7/ADM cells assessed as induction of PI3K-p110beta degradation at 25 uM measured for 24 hrs in presence of TGX221 by Western blot analysis; type: cell-based
# A549/CDDP [32] = assay: Induction of apoptosis in human A549/DDP cells assessed as decrease in bax expression at 12.5 uM incubated for 24 hrs by Western blot analysis; type: functional, cell-based
# [33] = Toxicity in BALB/c mouse xenografted with human MCF7/ADM cells assessed as change in HGB level at 50 mg/kg, ip; type: organism-based; details: in vivo
# MCF7/ADM [34] = assay: Antitumor activity against human MCF7/ADM cells xenografted in BALB/c mouse assessed as downregulation of p110beta level in tumor at 50 mg/kg, ip; type: functional, organism-based
# MCF7/ADM [35] = assay: Antitumor activity against human MCF7/ADM cells xenografted in BALB/c mouse assessed as decrease in cleaved caspase-8 expression in tumor at 50 mg/kg, ip by Western blot analysis; type: functional, organism-based
# [36] = molecular target: T2, von Hippel-Lindau disease tumor suppressor/Phosphatidylinositol 4,5-bisphosphate 3-kinase catalytic subunit beta isoform; assay: PROTAC activity at PI3K-p110beta/VHL in human A549/DDP cells assessed as induction of PI3K-p110beta degradation at 25 uM measured for 24 hrs in presence of VHL ligand by Western blot analysis; type: cell-based
# T2 sequence (P40337 whole entry, looked up, canonical isoform): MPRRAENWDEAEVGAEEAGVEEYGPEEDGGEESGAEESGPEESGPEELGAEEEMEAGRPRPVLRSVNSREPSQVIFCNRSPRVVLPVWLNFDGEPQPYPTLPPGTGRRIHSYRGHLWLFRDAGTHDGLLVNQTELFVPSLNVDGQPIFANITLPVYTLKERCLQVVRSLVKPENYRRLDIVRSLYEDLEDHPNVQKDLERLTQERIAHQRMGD
# T2 sequence (P42338 whole entry, looked up, canonical isoform): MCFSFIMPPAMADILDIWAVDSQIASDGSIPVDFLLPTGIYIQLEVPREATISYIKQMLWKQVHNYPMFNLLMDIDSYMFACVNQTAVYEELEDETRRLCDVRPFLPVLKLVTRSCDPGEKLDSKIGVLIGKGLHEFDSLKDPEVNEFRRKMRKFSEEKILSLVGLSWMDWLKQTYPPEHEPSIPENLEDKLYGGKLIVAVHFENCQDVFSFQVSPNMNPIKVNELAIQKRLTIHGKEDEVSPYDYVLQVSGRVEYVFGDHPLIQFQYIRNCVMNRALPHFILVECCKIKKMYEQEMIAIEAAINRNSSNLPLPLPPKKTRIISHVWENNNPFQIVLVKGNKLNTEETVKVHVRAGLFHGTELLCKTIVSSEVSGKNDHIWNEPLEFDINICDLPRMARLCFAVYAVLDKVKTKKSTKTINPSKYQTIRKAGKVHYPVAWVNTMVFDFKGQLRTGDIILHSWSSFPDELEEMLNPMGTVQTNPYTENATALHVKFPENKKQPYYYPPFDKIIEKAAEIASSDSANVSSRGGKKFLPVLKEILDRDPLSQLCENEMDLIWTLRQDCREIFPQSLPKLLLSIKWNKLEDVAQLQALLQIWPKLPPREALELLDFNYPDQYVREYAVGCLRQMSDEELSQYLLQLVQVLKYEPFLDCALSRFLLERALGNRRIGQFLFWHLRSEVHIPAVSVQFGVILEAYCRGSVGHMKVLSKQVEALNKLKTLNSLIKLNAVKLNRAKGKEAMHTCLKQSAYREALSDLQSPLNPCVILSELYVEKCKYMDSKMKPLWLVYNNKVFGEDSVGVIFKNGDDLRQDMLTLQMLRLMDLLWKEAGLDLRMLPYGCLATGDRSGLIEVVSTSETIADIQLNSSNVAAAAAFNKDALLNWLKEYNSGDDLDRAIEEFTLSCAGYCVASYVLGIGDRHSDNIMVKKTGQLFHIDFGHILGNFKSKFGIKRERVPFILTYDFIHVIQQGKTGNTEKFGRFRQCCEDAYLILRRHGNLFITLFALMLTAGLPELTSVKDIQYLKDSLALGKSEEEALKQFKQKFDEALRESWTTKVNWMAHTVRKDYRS
# T1 sequence (P08183 whole entry): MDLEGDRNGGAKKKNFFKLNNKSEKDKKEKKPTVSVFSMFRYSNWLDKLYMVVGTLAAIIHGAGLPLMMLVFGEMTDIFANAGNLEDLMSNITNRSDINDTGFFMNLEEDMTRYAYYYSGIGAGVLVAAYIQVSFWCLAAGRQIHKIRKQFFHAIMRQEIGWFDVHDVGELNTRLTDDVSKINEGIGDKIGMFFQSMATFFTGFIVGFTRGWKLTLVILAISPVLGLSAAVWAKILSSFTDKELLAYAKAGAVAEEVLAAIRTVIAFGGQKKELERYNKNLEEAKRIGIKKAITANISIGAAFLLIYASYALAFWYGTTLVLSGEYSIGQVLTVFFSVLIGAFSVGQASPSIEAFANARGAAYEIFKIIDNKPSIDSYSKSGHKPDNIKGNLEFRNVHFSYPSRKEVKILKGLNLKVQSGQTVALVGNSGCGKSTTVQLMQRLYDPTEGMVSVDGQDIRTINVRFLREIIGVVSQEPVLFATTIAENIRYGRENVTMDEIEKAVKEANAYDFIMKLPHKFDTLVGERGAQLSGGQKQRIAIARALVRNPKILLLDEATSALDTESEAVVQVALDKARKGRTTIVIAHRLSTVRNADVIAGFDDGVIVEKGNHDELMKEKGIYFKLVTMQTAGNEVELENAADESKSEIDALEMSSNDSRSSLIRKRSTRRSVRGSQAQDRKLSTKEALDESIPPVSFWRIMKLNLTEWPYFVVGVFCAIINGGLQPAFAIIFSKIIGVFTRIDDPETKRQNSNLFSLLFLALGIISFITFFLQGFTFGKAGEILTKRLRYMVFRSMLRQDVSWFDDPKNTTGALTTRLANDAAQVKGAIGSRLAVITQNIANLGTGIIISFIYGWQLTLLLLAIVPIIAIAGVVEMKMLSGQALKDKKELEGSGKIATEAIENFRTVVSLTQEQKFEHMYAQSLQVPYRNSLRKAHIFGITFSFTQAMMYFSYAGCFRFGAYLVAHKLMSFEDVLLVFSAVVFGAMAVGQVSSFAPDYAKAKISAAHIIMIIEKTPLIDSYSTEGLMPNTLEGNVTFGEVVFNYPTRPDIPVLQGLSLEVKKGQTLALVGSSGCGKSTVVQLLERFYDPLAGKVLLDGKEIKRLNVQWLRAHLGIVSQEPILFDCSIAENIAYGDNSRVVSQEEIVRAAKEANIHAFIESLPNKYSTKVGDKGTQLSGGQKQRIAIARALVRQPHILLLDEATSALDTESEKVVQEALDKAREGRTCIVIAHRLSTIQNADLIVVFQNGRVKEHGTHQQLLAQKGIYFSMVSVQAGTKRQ
SMILES,Activity (MCF7/ADM [1]),Activity (Mitochondrial membrane [2]),inhibition (INH) [3],Activity (A549/CDDP [4]),Activity (A549/CDDP [5]),Activity (MCF7/ADM [6]),IC50 (A549/CDDP [7]),Activity (A549/CDDP [8]),Activity [9],Activity (A549/CDDP [10]),inhibition (INH) [11],Activity [12],Activity (A549/CDDP [13]),Activity (A549/CDDP [14]),Activity (MCF7/ADM [15]),Activity [16],Activity (MCF7/ADM [17]),Activity (MCF7/ADM [18]),Activity (MCF7/ADM [19]),Activity (MCF7/ADM [20]),also measured
Cc1cc(C(C)Nc2ccccc2C(=O)NCCOCCOCCC(=O)N[C@H](C(=O)N2C[C@H](O)C[C@H]2C(=O)NCc2ccc(-c3scnc3C)cc2)C(C)(C)C)c2nc(N3CCOCC3)cc(=O)n2c1 (some centres not stated),Active,Active,Active,Active,Active,Active,43.1 µM,Active,Active,Active,Active,Non-toxic,Active,Active,Active,Non-toxic,Active,Active,Active,Active,Activity (A549/CDDP [21]): Active; Activity (Mitochondrial membrane [22]): Active; Activity (MCF7/ADM [23]): Active; Activity (MCF7/ADM [24]): Active; Activity (MCF7/ADM [25]): Active; Activity (MCF7/ADM [26]): inactive; Activity (A549/CDDP [27]): Active; Activity (MCF7/ADM [28]): Active; Activity (MCF7/ADM [29]): Active; Activity (MCF7/ADM [30]): Active; Activity [31]: inactive; Activity (A549/CDDP [32]): Active; Activity [33]: Non-toxic; Activity (MCF7/ADM [34]): Active; Activity (MCF7/ADM [35]): Active; Activity [36]: Active
Cc1cc(C(C)Nc2ccccc2C(=O)NCCCCCCC(=O)N[C@H](C(=O)N2C[C@H](O)C[C@H]2C(=O)NCc2ccc(-c3scnc3C)cc2)C(C)(C)C)c2nc(N3CCOCC3)cc(=O)n2c1 (some centres not stated),Active,Active,Active,Active,Active,Active,39.2 µM,Active,Active,Active,Active,Non-toxic,Active,Active,Active,Non-toxic,Active,Active,Active,Active,Activity (A549/CDDP [21]): Active; Activity (Mitochondrial membrane [22]): Active; Activity (MCF7/ADM [23]): Active; Activity (MCF7/ADM [24]): Active; Activity (MCF7/ADM [25]): Active; Activity (MCF7/ADM [26]): inactive; Activity (A549/CDDP [27]): Active; Activity (MCF7/ADM [28]): Active; Activity (MCF7/ADM [29]): Active; Activity (MCF7/ADM [30]): Active; Activity [31]: inactive; Activity (A549/CDDP [32]): Active; Activity [33]: Non-toxic; Activity (MCF7/ADM [34]): Active; Activity (MCF7/ADM [35]): Active; Activity [36]: Active
